Assay results from PubChem BioAssay (NCI).
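Dose response: 5 concentrations. Exposure: 48 h. Format: 96-well plates. Endpoint: linear interpolation; highest concentration if not reached. TGI denotes the concentration required for complete inhibition of growth.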

Tests used:
Test in all cases: NCI anticancer screen, dose series, 48 h
[1] = tested on: MDA-N
[2] = tested on: SK-MEL-28 melanoma
[3] = tested on: NCI-H226 lung
[4] = tested on: HT29 colon
[5] = tested on: SNB-75 CNS
[6] = tested on: MDA-MB-231 breast
[7] = tested on: HOP-92 NSCLC
[8] = tested on: MDA-MB-435
[9] = tested on: HL-60(TB) leukemia
[10] = tested on: PC-3 prostate
[11] = tested on: NCI-H522 lung
[12] = tested on: U251 CNS
[13] = tested on: A549 NSCLC
[14] = tested on: BT-549 breast
[15] = tested on: SF-539 CNS
[16] = tested on: ACHN renal
[17] = tested on: UACC-257 melanoma
[18] = tested on: SR leukemia
[19] = tested on: HS 578T breast
[20] = tested on: TK-10 renal
[21] = tested on: HCT-116 colon
[22] = tested on: COLO 205 colon
[23] = tested on: HOP-62 NSCLC
[24] = tested on: OVCAR-5 ovarian
[25] = tested on: MCF7 breast
[26] = tested on: SF-268 CNS
[27] = tested on: LOX IMVI melanoma
[28] = tested on: MALME-3M melanoma
[29] = tested on: OVCAR-3 ovarian
[30] = tested on: RPMI-8226 leukemia
[31] = tested on: HCC-2998 colon
[32] = tested on: NCI/ADR-RES ovarian
[33] = tested on: UO-31 renal
[34] = tested on: SNB-19 CNS
[35] = tested on: SN12C renal
[36] = tested on: HCT-15 colon
[37] = tested on: SW-620 colon
[38] = tested on: DU-145 prostate
[39] = tested on: SK-MEL-5 melanoma
[40] = tested on: IGROV1 ovarian
[41] = tested on: CAKI-1 renal
[42] = tested on: K-562 leukemia
[43] = tested on: KM12 colon
[44] = tested on: NCI-H23 lung
[45] = tested on: A498 renal
[46] = tested on: MOLT-4 leukemia
[47] = tested on: 786-0 renal
[48] = tested on: RXF 393 renal
[49] = tested on: OVCAR-8 ovarian
[50] = tested on: EKVX NSCLC
[51] = tested on: NCI-H460 lung
[52] = tested on: CCRF-CEM leukemia
[53] = tested on: SF-295 CNS
[54] = tested on: OVCAR-4 ovarian
[55] = tested on: T-47D breast
[56] = tested on: UACC-62 melanoma
[57] = tested on: M14 melanoma
[58] = tested on: SK-OV-3 ovarian
[59] = tested on: SK-MEL-2 melanoma

CC(C)(C)OC(=O)NC(CSCc1ccc(C(=O)c2ccccc2)cc1)C(=O)O (stereo not drawn)
TGI [1]: > 100 µM | TGI [2]: > 100 µM | TGI [3]: > 100 µM | TGI [4]: > 100 µM | TGI [5]: > 100 µM | TGI [6]: > 100 µM | TGI [7]: > 100 µM | TGI [8]: > 100 µM | TGI [9]: > 100 µM | TGI [10]: > 100 µM | TGI [11]: > 100 µM | TGI [12]: > 100 µM | TGI [13]: > 100 µM | TGI [14]: > 100 µM | TGI [15]: > 100 µM | TGI [16]: > 100 µM | TGI [17]: > 100 µM | TGI [18]: > 100 µM | TGI [19]: > 100 µM | TGI [20]: > 100 µM | TGI [21]: > 100 µM | TGI [22]: > 100 µM | TGI [23]: > 100 µM | TGI [24]: > 100 µM | TGI [25]: > 100 µM | TGI [26]: > 100 µM | TGI [27]: > 100 µM | TGI [28]: > 100 µM | TGI [29]: > 100 µM | TGI [30]: > 100 µM | TGI [31]: > 100 µM | TGI [32]: > 100 µM | TGI [33]: > 100 µM | TGI [34]: > 100 µM | TGI [35]: > 100 µM | TGI [36]: > 100 µM | TGI [37]: > 100 µM | TGI [38]: > 100 µM | TGI [39]: > 100 µM | TGI [40]: > 100 µM | TGI [41]: > 100 µM | TGI [42]: > 100 µM | TGI [43]: > 100 µM | TGI [44]: > 100 µM | TGI [45]: > 100 µM | TGI [46]: > 100 µM | TGI [47]: > 100 µM | TGI [48]: > 100 µM | TGI [49]: > 100 µM | TGI [50]: > 100 µM | TGI [51]: > 100 µM | TGI [52]: > 100 µM | TGI [53]: > 100 µM | TGI [54]: > 100 µM

CN(C)c1ccc(/C=C2\C[C@H]3[C@@H]4CC=C5C[C@@H](O)CC[C@]5(C)[C@H]4CC[C@]3(C)C2=O)cc1
TGI [1]: > 100 µM | TGI [2]: 40 µM | TGI [55]: 62.8 µM | TGI [56]: 32.6 µM | TGI [3]: 42.3 µM | TGI [4]: 56.2 µM | TGI [5]: 57 µM | TGI [6]: 36 µM | TGI [9]: > 100 µM | TGI [57]: 46 µM | TGI [10]: 29.3 µM | TGI [12]: 25.9 µM | TGI [13]: 44.4 µM | TGI [14]: > 100 µM | TGI [15]: 27.9 µM | TGI [16]: 34.8 µM | TGI [17]: 40.2 µM | TGI [18]: > 100 µM | TGI [58]: 63.7 µM | TGI [20]: 39.3 µM | TGI [21]: > 100 µM | TGI [22]: > 100 µM | TGI [23]: 38.3 µM | TGI [24]: 46.4 µM | TGI [25]: > 100 µM | TGI [26]: 27.7 µM | TGI [27]: 29 µM | TGI [28]: 39.6 µM | TGI [29]: 66.8 µM | TGI [30]: > 100 µM | TGI [32]: 66.8 µM | TGI [33]: 18.9 µM | TGI [34]: 39.3 µM | TGI [35]: 54.9 µM | TGI [36]: > 100 µM | TGI [37]: > 100 µM | TGI [38]: > 100 µM | TGI [39]: > 100 µM | TGI [40]: 35.8 µM | TGI [42]: > 100 µM | TGI [43]: > 100 µM | TGI [44]: 81.2 µM | TGI [45]: 38.2 µM | TGI [46]: > 100 µM | TGI [59]: 41.4 µM | TGI [47]: 41 µM | TGI [48]: 43.9 µM | TGI [49]: 19.1 µM | TGI [50]: 93.7 µM | TGI [51]: 33.7 µM | TGI [53]: 75.8 µM | TGI [54]: 48.2 µM

N#CC(C/C=C/c1ccccc1)NNC(=O)c1c(Cl)c(Cl)c(Cl)c(Cl)c1-c1nc2ccc(C(=O)c3ccccc3)cc2[nH]1 (stereo not drawn)
TGI [1]: 19.4 µM | TGI [2]: > 100 µM | TGI [55]: 63.8 µM | TGI [3]: 41.6 µM | TGI [4]: 33.2 µM | TGI [5]: 46.4 µM | TGI [6]: 34.4 µM | TGI [7]: 73.3 µM | TGI [8]: 51.9 µM | TGI [9]: 54.5 µM | TGI [57]: 30.9 µM | TGI [10]: 35.9 µM | TGI [12]: 25 µM | TGI [13]: 55.4 µM | TGI [14]: 54.4 µM | TGI [15]: 26.9 µM | TGI [16]: 97.3 µM | TGI [17]: > 100 µM | TGI [18]: 45.2 µM | TGI [58]: 55.5 µM | TGI [20]: 66 µM | TGI [21]: 62.2 µM | TGI [22]: 42 µM | TGI [23]: 24.8 µM | TGI [24]: 94.7 µM | TGI [25]: 36.2 µM | TGI [27]: 28.5 µM | TGI [29]: 37.4 µM | TGI [30]: 50.2 µM | TGI [32]: 31 µM | TGI [33]: > 100 µM | TGI [34]: 35.8 µM | TGI [35]: 32.7 µM | TGI [36]: 29.2 µM | TGI [37]: > 100 µM | TGI [38]: 50.7 µM | TGI [39]: 32 µM | TGI [40]: > 100 µM | TGI [41]: > 100 µM | TGI [42]: 55.2 µM | TGI [43]: > 100 µM | TGI [44]: 55.8 µM | TGI [45]: 41.9 µM | TGI [46]: 81.5 µM | TGI [59]: 45 µM | TGI [47]: 30.2 µM | TGI [48]: 39.8 µM | TGI [49]: 37.1 µM | TGI [50]: 47.4 µM | TGI [52]: 20.3 µM | TGI [53]: 22.4 µM | TGI [54]: 73.9 µM
